Test results as given in patent US7109317B1, “FK506-based regulation of biological events” (President and Fellows of Harvard College, priority 1998, dated 2006).

Key:
[1] = system: endogenous calcineurin (NFAT-SEAP reporter, human TAg Jurkat T cells); assay: NFAT-SEAP reporter assay (calcineurin inhibition assay), PMA + ionomycin stimulated human TAg Jurkat T cells; format: cell-based; conditions: for inhibition of NFAT-SEAP activity: PMA/ionomycin-induced reporter activity
Description: A similar strategy can be used to identify bump-hole pairs for the CAB domain.
Each of the residues in question is part of the CAB minimal binding domain structure. […] These mutations may be inserted randomly or in a directed fashion, as described above for FKBP.
(§1) In particular, we transfected human TAg Jurkat T cells with a reporter construct, NFAT-SEAP, which consists of 12 copies of the NFAT response element fused upstream of the gene for secreted alkaline phosphatase (SEAP). Following transfection, the cells were exposed to phorbol myristate acetate (PMA) and ionomycin (IO), which together are able to activate NFAT-SEAP reporter activity. […] Specifically, ten million Jurkat cells per condition were transfected with 500 ng of NFAT-SEAP reporter construct by electroporation (40 ms pulse) and aliquoted at 0.3×10^6/well into a 96-well microtiter plate. […] Cells were incubated 36 hours in a tissue culture incubator, then heat-inactivated for 2 hours at 65° C. Following heating, 100 μL of cell supernatants were transferred to a replica plate containing 100 μL of assay buffer (120 μM 4-methylumbelliferyl phosphate in 2M diethanolamine bicarbonate, pH 10). Assays were incubated 8 hours before reading on a Fluoroskan plate reader.

[2] = system: mink lung cells (FKBP); assay: rapamycin-dependent effect in mink lung cells, suppression by FK506 derivatives; format: cell-based
Description: To rule out these other possibilities, we tested two of the derivatives for their ability to suppress a rapamycin-dependent effect in mink lung cells (Paul A Clemons and Brent Stockwell, unpublished observations).

[3] = system: mink lung cells; assay: Suppression of a rapamycin-dependent effect in mink lung cells; format: cell-based; conditions: unpublished observations
Description: Other possibilities for the reduced activity of derivatives in this assay are 1) compound insolubility in tissue culture media, 2) inability of compound to penetrate the cell membrane, or 3) inability of compound to bind to FKBP. To rule out these other possibilities, we tested two of the derivatives for their ability to suppress a rapamycin-dependent effect in mink lung cells (Paul A Clemons and Brent Stockwell, unpublished observations).

[4] = system: calcineurin; assay: NFAT-SEAP reporter gene assay (calcineurin inhibition assay), PMA/ionomycin-stimulated; format: cell-based, human; conditions: dose-dependent suppression of PMA/ionomycin-induced activation of NFAT-SEAP reporter, transient transfection
Method: as §1

[5] = system: full length CABMG-GE (CNA residues 12–394 fused to CNBMG, GAL4), with FKBP3-VE; assay: SEAP assay, full length CABMG-GE with FKBP3-VE
Method: (§2) 10 million T-antigen transformed Jurkat T-cells growing in log phase at 37 degrees with 5% CO2 in RPMI medium supplemented with 10% FBS, Penicillin and Streptomycin, and Glutamate are centrifuged for 5 minutes at 1000×g. This pellet is washed with RPMI without phenol-red and re-pelleted by centrifugation at 1000×g for 5 minutes. 200 microliters of phenol-free RPMI are used to resuspend each 10 million cells. 200 microliters of these cells are then incubated for 10 minutes at room temperature with 1 microgram of the UAS-SEAP reporter, 1 microgram of the DNA binding domain containing construct, and 5 micrograms of the activation domain containing construct. Electroporation is performed at […], 129 Ohms on a BTX electroporator. The cells are allowed to recover at room temperature for another 10 minutes. They are then resuspended in 10 mLs of RPMI w/o phenol red supplemented with 10% FBS, penicillin, streptomycin, and Glutamate and returned to the 37 degree incubator with 5% CO2 for 24 hrs.
(§3) After recovery, the cells are pelleted by centrifugation at 1000×g for 5 minutes and resuspended in 5 mLs of RPMI w/o phenol red supplemented with 10% FBS, penicillin, streptomycin, and Glutamate. 100 microliters of this cell suspension is plated on a 96 well plate. […]

[6] = system: (340miniCABMG)2-VE, two 340miniCAB domains in series fused to VP16, with FKBP3-GE; assay: SEAP assay, two 340miniCAB domains in series (VE) with FKBP3-GE; format: cell-based, human; conditions: FK506, with FKBP3-GE
Method: as §2, §3

[7] = system: (340miniCABMG)3-VE, three 340miniCABs in series fused to VP16, with FKBP3-GE; assay: SEAP assay, three 340miniCAB domains in series (VE) with FKBP3-GE; format: cell-based, human; conditions: FK506, with FKBP3-GE
Method: as §2, §3

[8] = system: fCAB, CnA (12–394) fused to CnB (3–170), human calcineurin A (SEQ ID NO: 33) and calcineurin B (SEQ ID NO: 35); assay: NFAT-SEAP reporter assay with overexpressed full length CAB (fCAB); format: cell-based; conditions: 500–5000 ng fCAB construct DNA, 500 ng NFAT-SEAP
Method: Primers containing restriction sites were prepared in order to amplify two different fragments of calcineurin A, corresponding the full-length CAB (fCAB) and the minimal CAB (mCAB). These PCR fragments were subcloned directionally into the polylinker to generate the following constructs: ATG-XhoI-CnA (12–394)-SalI-SpeI-TAA-EcoRI ATG-XhoI-CnA (340–394)-SalI-SpeI-TAA-EcoRI Primers containing restriction sites were prepared in order to amplify the fragment of calcineurin B corresponding to residues 3–170 of this protein. […] This fusion results in another (SalI/XhoI) fusion which cannot be cut by either enzyme. A similar strategy is possible to generate multimers of the CAB domain, greatly facilitating the production of these reagents. Since all of the restriction enzymes within the coding region are 6-base cutters, they preserve the reading frame for protein synthesis. The mature CAB should have the following amino acid sequence: NH2-Met-Leu-Glu-(CnA frag)-Val-Glu-(CnB frag)-Val-Asp-Thr-Ser-COOH • (SEQ ID NO 22) New mCAB-p65 constructs were verified by sequence analysis.
In particular, we transfected human TAg Jurkat T cells with a reporter construct, NFAT-SEAP, which consists of 12 copies of the NFAT response element fused upstream of the gene for secreted alkaline phosphatase (SEAP). […] Assays were incubated 8 hours before reading on a Fluoroskan plate reader. […]

[9] = system: 340miniCAB-VE constructs (CNA residues 340–394 fused to CNBMG or CNBM, VP16), with FKBP3-GE; assay: SEAP assay, 340miniCAB-VE with FKBP3-GE; format: cell-based, human
Method: as §2
After recovery, the cells are pelleted by centrifugation at 1000×g for 5 minutes and resuspended in 5 mLs of RPMI w/o phenol red supplemented with 10% FBS, penicillin, streptomycin, and Glutamate. 100 microliters of this cell suspension is plated on a 96 well plate. Appropriate dilutions of the dimerizer from an ethanolic solution (2 micromolar to 0.2 nanomolar) are made in the same media that the cells were resuspended in such that the concentration of ethanol is less than 1%.

[10] = system: 350miniCABs (CNA residues 350–394 fused to CNBMG or CNBM, VP16), with FKBP3-GE; assay: SEAP assay, 350miniCAB-VE with FKBP3-GE; format: cell-based, human; conditions: FK506, with FKBP3-GE
Description: Four such minimal CAB proteins were created by PCR and ligation. Two of the miniCABs contained CNA residues 340–394 fused to either CNBMG or CNBM(340miniCABs). The other two miniCABs contained CNA residues 350–394 fused to either CNBMG or CNBM(350miniCABs). Each of these miniCABs was also fused to the VP16 transactivation domain.
Consistent with the relative activity of CNBMG and CNBM, 340miniCABMG-VE was able to induce higher SEAP activity than 340miniCABM-VE.

[11] = system: full length CABs (residues 12–394 of human calcineurin A, SEQ ID NO: 33, fused to residue 2 or residue 3 of calcineurin B, SEQ ID NO: 35) fused to VP16 or …; assay: SEAP transcription activation assay, full length CABs fused to VP16 or GAL4; format: cell-based; conditions: FK506 titration, Jurkat T-cells
Description: The summary of our data in this transcription assay is as follows. The full length CABS (residues 12–394 of calcineurin A fused to residue 2 or to residue 3 of Calcinuerin B) are functional when fused to VP16 or to GAL4. They have an EC50 of ˜1 nanoMolar.

[12] = system: 2 tandem minicabs (340–394 of CNA and 3–170 of CNB) fused to VP16, with Gal4 fused to 3 FKBPs; assay: SEAP transcription activation assay, 2 tandem minicabs fused to VP16; conditions: FK506, SEAP
Method: as §2, §3

SMILES: CO[C@H]1C[C@@H](C)C/C(C)=C/[C@@H](CC=Cc2ccccc2)C(=O)C[C@H](O)[C@@H](C)[C@@H](/C(C)=C/[C@@H]2CC[C@@H](O)[C@H](OC)C2)OC(=O)[C@@H]2CCCCN2C(=O)C(=O)[C@]2(O)O[C@H]1[C@@H](OC)C[C@H]2C [C40-phenyl-FK506]
- inhibition of NFAT-SEAP activity [1]: inability of C40-phenyl-FK506 to inhibit NFAT-SEAP activity
- immunosuppressive activity relative to FK506 (dose-dependent suppression of PMA/ionomycin-induced NFAT-SEAP activation) ([1]; fold less immunosuppressive than FK506, transient transfection): at least 30 fold
- suppression of rapamycin-dependent effect [2]: able to suppress the effects of rapamycin
- ability to suppress the effects of rapamycin [3]: able to suppress the effects of rapamycin
- fold less immunosuppressive than FK506 [4]: at least 30 fold

SMILES: C=CC[C@@H]1/C=C(\C)C[C@H](C)C[C@H](OC)[C@H]2O[C@@](O)(C(=O)C(=O)N3CCCC[C@H]3C(=O)O[C@H](/C(C)=C/[C@@H]3CC[C@@H](O)[C@H](OC)C3)[C@H](C)[C@@H](O)CC1=O)[C@H](C)C[C@@H]2OC [FK506]
- enhancement of SEAP activity ([5]; FK506, with FKBP3-VE): 2.0 fold
- stimulation of SEAP activity in the absence of FK506 ([5]; full CAB-GE and CAB-VE, no FK506): do not stimulate activity in the absence of FK506
- EC50 [6]: ~1.3 nM
- inhibition of NFAT-SEAP activity [1]: antagonizes the effect of PMA+IO in a dose-dependent manner
- EC50 [7]: ~1.3 nM
- inhibition of reporter gene activity at high level of fCAB overexpression [8]: a high level of fCAB overexpression overcame the ability of FK506 or its derivatives to inhibit reporter gene activity
- stimulation of SEAP activity ([9]; FK506-dependent, with FKBP3-GE): able to stimulate SEAP activity
- EC50 ([9]; miniCABs, FK506, SEAP): ~3 nM
- EC50 of the miniCABs compared with full length CABMG-VE ([9]; relative to full length CABMG-VE): an order of magnitude greater than for full length CABMG-VE
- stimulation of SEAP activity [10]: neither of the 350miniCABs were able to stimulate SEAP activity
- EC50 [11]: ~1 nM
- total activation [12]: ~20 fold

SMILES: CO[C@H]1C[C@@H](C)C/C(C)=C/[C@@H](CC=Cc2ccc(Oc3ccccc3)cc2)C(=O)C[C@H](O)[C@@H](C)[C@@H](/C(C)=C/[C@@H]2CC[C@@H](O)[C@H](OC)C2)OC(=O)[C@@H]2CCCCN2C(=O)C(=O)[C@]2(O)O[C@H]1[C@@H](OC)C[C@H]2C [C40-p-phenoxyphenyl-FK506]
- suppression of rapamycin-dependent effect [2]: able to suppress the effects of rapamycin
